Laboratory results from the METLIN SMRT retention time set (Domingo-Almenara et al. 2019).

Test: gradient 5% acetonitrile 3 min, to 50% in 2 min, to 85% in 15 min, held 3 min, 100 µL/min
Details: column: Zorbax Extend-C18 2.1 x 50 mm; eluents: water / acetonitrile, 0.1% formic acid
Summary of the method: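 Retention times come from adduct peaks that were picked computationally and then checked by hand. The standards, pure and pooled in mixtures of ~100 molecules, were run on a Zorbax Extend-C18 column (2.1 × 50 mm, 1.8 μm) at 100 μL/min with water and acetonitrile, each with 0.1% formic acid. Detection was by quadrupole time-of-flight mass spectrometry in positive and negative ionization mode, with a dead volume of 40 μL and a dwell volume of 900 μL.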

| SMILES | RP-LC retention time [s] |
| --- | --- |
| O=C(c1cccs1)N1CCCC(OCc2nc(C3CC3)no2)C1 (configuration not stated) | 786 |
| CCOC(=O)c1c(C)[nH]c(C(=O)N2CCC(CC(=O)NCc3ccccc3C)CC2)c1C | 802 |
| COc1cc(C(=O)N2CCC(C(=O)NCCc3cscn3)CC2)cc(OC)c1OC | 631 |
| CC(=O)Nc1ccc(NC(=O)Cn2ccn3nc(-c4ccc(F)cc4)c(CO)c3c2=O)cc1 | 670 |
| CCCOCCOC(=O)C1=C(C)NC2=C(C(=O)C(C(=O)OC)C(C)C2)C1c1cccc(F)c1 (configuration not stated) | 965 |
| CN(CC1CCOC1)C(=O)Nc1cccc(Cl)c1 (configuration not stated) | 738 |
| Cc1ccc(Nc2c(-c3ccc(Cl)cc3)nc3ccccn23)cc1 | 787 |
| O=C(NCCCn1nc(-c2ccco2)ccc1=O)c1cc(Cl)ccc1Cl | 737 |
| COc1ccc(C2CC(=O)N(c3ccc(C)c(F)c3)C(=O)C2)cc1OC | 867 |
| CSc1ccccc1NC(=O)C(=O)NN1CCN(C)CC1 | 559 |
| Cc1ccc(CNC(=O)Cn2cccc2-c2nc(-c3ccccc3)cs2)o1 | 1050 |
| C=CCOC(=O)/C=C\C(=O)NC(N)=O | 659 |
| O=C(Cn1cnc2ccccc21)NCCOc1cccc2cccnc12 | 527 |
| O=C(O)c1[nH]nc2c1COc1ccccc1-2 | 673 |
| CC(CNC(=O)c1cc2n(n1)CC(C)(C(=O)NC1CCCCC1)N(C)C2=O)c1ccccc1 (configuration not stated) | 795 |

Second part, the compound after the results:

| RP-LC retention time [s] | SMILES |
| --- | --- |
| 622 | Cc1cc(=O)n(CC(=O)NCc2ccc3c(c2)OCO3)c(N2CCOCC2)n1 |
| 748 | CCCc1noc(-c2cccnc2N2CCCN(Cc3ccc(F)cc3Cl)CC2)n1 |
| 648 | CCOC(=O)CNC(=O)NCCc1nc2cccnc2n1Cc1ccccc1 |
| 750 | O=C(Nc1ccc2c(c1)OCO2)C1CC(=O)N(CCc2c[nH]c3ccc(F)cc23)C1 (configuration not stated) |
| 948 | CCOC(=O)c1noc2ncnc(Nc3ccccc3CC)c12 |
| 680 | Cc1oc(C2CCN(C(=O)Nc3ccc(F)cc3F)CC2)nc1C(=O)N1CCOCC1 |
| 740 | CCn1nccc1C(=O)NCCn1c(=O)n(Cc2ccccc2)c2cccnc21 |
| 683 | O=C(NCc1ccc2c(c1)OCO2)c1nnc2n(c1=O)CCN2c1ccc(F)cc1 |
| 1130 | Cc1ccc(-c2noc(CN3C(=O)COc4cc(C)ccc43)n2)cc1 |
| 722 | Cc1noc(-c2nn(C)c3c2CN(C(=O)C2CCCC2)CC3)n1 |
| 661 | CCc1ccc(S(=O)(=O)c2cnc(N3CCC(C(N)=O)(N4CCCCC4)CC3)nc2N)cc1 |
| 578 | O=C(Cc1cccnc1)N1CCC[C@H]1c1nc(-c2ccccc2)n[nH]1 |
| 766 | CCOC(=O)Cn1c(C2CC(=O)N(c3ccc(F)cc3)C2)nc2ccccc21 (configuration not stated) |
| 803 | Cc1cccc(N2CCN(C(=O)C3CC(=O)N(c4cccc(NC(=O)C(C)C)c4)C3)CC2)c1 (configuration not stated) |
| 851 | CC(C)n1c(=O)oc2cc(-c3noc(CNC(=O)c4ccccc4)n3)ccc21 |
| 1050 | CCn1ccc(C(=O)N2CCc3cc(-c4csc(C5CC5)n4)ccc32)n1 |
| 623 | CC1CCN(S(=O)(=O)c2ccc(-c3nnc(C(=O)NCCCN4CCN(C)CC4)o3)cc2)CC1 |
| 653 | COCCc1noc(-c2cnc3nc(C)ccc3c2NCc2ccccc2C)n1 |
| 1040 | Cc1noc(C)c1-c1ccc(S(=O)(=O)N2CCc3ccccc32)cc1 |
| 876 | O=C(NCC12CCC=C1N(CC1CC1)C(=O)CC2)Nc1cccc(F)c1 (configuration not stated) |
| 935 | Cc1nnc(NC(=O)c2cn(Cc3cccc(F)c3)nc2OCc2cccc(F)c2)s1 |
| 665 | CN(Cc1nc2cc(C(=O)N3CCCC3)ccc2n1C)C(=O)Nc1cccc(Br)c1 |
